From patent US20090299044A1 (priority 2006, published 2009)
Bridge positions count the residues as written; N and C are the ends. Square brackets hold non-standard residues; d marks the D form. Peptide text beside a SMILES is read from it. 1Nal = N[C@@H](Cc1cccc2ccccc12)C(=O)O

Tests used:
human Kv1.3 (CHO) = target: T1, human Kv1.3 (CHO) (Homo sapiens, UniProt P22001); test: cell-based
T1 construct: expressed in transfected cells; host or cells: CHO

human Kv1.1 (HEK293) = target: T2, human Kv1.1 (HEK293) (Homo sapiens, UniProt Q09470); test: cell-based
T2 construct: expressed in transfected cells; host or cells: HEK293
T2 sequence (Q09470 whole entry): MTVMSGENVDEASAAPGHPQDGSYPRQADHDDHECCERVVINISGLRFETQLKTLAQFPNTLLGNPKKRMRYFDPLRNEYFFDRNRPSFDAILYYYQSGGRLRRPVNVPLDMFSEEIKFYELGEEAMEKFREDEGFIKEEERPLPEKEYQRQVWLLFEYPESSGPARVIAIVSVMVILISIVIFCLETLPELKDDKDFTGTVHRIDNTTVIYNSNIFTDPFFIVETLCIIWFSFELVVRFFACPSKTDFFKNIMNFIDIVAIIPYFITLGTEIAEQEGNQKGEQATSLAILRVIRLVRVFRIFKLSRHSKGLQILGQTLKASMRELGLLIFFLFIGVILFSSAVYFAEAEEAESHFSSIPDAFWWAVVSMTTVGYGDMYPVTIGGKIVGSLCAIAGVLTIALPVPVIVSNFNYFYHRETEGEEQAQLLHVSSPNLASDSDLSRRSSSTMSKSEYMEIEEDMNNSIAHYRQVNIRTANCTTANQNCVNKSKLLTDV

T1 sequence (P22001 whole entry): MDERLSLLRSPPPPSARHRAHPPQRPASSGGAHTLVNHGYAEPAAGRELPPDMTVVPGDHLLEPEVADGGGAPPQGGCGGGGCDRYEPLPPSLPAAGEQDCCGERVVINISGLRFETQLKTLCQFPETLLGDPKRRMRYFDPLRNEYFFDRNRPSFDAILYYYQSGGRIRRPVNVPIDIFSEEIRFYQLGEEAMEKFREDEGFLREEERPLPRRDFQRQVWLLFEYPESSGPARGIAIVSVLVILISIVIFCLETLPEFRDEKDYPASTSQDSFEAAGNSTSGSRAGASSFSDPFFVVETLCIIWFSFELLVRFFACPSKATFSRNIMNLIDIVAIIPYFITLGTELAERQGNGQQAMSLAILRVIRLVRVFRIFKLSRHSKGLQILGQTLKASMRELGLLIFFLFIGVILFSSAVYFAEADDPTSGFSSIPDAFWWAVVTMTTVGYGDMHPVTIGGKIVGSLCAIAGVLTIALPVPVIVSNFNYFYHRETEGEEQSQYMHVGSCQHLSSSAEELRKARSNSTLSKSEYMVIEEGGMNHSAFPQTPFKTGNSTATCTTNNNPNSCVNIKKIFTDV

SMILES	IC50 (human Kv1.3 (CHO))	IC50 (human Kv1.1 (HEK293))
CC[C@H](C)[C@@H]1NC(=O)[C@H](CCCCN)NC(=O)[C@@H](NC(=O)[C@H](CCCCN)NC(=O)[C@@H](NC(=O)[C@H](CC(N)=O)NC(=O)[C@@H](NC(=O)[C@@H](NC(=O)[C@@H](NC(=O)CN)C(C)C)[C@@H](C)CC)[C@@H](C)CC)C(C)C)CSSC[C@@H]2NC(=O)[C@H](CCCCN)NC(=O)CNC(=O)[C@H](Cc3ccccc3)NC(=O)[C@H](CCCNC(=N)N)NC(=O)[C@H](CCSC)NC(=O)CNC(=O)[C@H](C)NC(=O)[C@H](CCCCN)NC(=O)[C@H](CCCCN)NC(=O)[C@@H]3CSSC[C@@H](C(=O)N[C@H](C(=O)N4CCC[C@H]4C(=O)N[C@@H](CCCCN)C(=O)O)[C@@H](C)O)NC(=O)[C@H](Cc4c[nH]cn4)NC(=O)[C@H](CSSC[C@H](NC(=O)[C@H](CCC(N)=O)NC(=O)[C@H](CCCNC(=N)N)NC(=O)[C@H](CO)NC1=O)C(=O)N[C@@H](CC(C)C)C(=O)N[C@@H](CCC(=O)O)C(=O)N1CCC[C@H]1C(=O)N3)NC(=O)[C@H](CCCCN)NC(=O)CNC(=O)[C@H](CCCNC(=N)N)NC(=O)[C@H](CCSC)NC2=O [N30R] (H-GVIINVKCKISRQCLEPCKKAGMRFGKCMRGKCHCTPK-OH; disulfide 8-28, 14-33, 18-35)	0.0189 nM	0.0457 nM
CC[C@H](C)[C@@H]1NC(=O)[C@H](CCCCN)NC(=O)[C@@H](NC(=O)[C@H](CCCCN)NC(=O)[C@@H](NC(=O)[C@H](CC(N)=O)NC(=O)[C@@H](NC(=O)[C@@H](NC(=O)[C@@H](NC(=O)CN)C(C)C)[C@@H](C)CC)[C@@H](C)CC)C(C)C)CSSC[C@@H]2NC(=O)[C@H](CCCCN)NC(=O)CNC(=O)[C@H](Cc3ccccc3)NC(=O)[C@H](CCCNC(=N)N)NC(=O)[C@H](CCSC)NC(=O)CNC(=O)[C@H](C)NC(=O)[C@H](CCCCN)NC(=O)[C@H](CCCCN)NC(=O)[C@@H]3CSSC[C@@H](C(=O)N[C@H](C(=O)N4CCC[C@H]4C(=O)N[C@@H](CCCNC(=N)N)C(=O)O)[C@@H](C)O)NC(=O)[C@H](Cc4c[nH]cn4)NC(=O)[C@H](CSSC[C@H](NC(=O)[C@H](CCC(N)=O)NC(=O)[C@H](CCCNC(=N)N)NC(=O)[C@H](CO)NC1=O)C(=O)N[C@@H](CC(C)C)C(=O)N[C@@H](CCC(=O)O)C(=O)N1CCC[C@H]1C(=O)N3)NC(=O)[C@H](CCCCN)NC(=O)CNC(=O)[C@H](CC(N)=O)NC(=O)[C@H](CCSC)NC2=O [K38R] (H-GVIINVKCKISRQCLEPCKKAGMRFGKCMNGKCHCTPR-OH; disulfide 8-28, 14-33, 18-35)	0.015 nM	0.00184 nM
CC[C@H](C)[C@@H]1NC(=O)[C@H](CCCCN)NC(=O)[C@@H](NC(=O)[C@H](CCCCN)NC(=O)[C@@H](NC(=O)[C@H](CC(N)=O)NC(=O)[C@@H](NC(=O)[C@@H](NC(=O)[C@@H](NC(=O)CN)C(C)C)[C@@H](C)CC)[C@@H](C)CC)C(C)C)CSSC[C@@H]2NC(=O)[C@H](CCCCN)NC(=O)CNC(=O)[C@H](Cc3ccccc3)NC(=O)[C@H](CCCNC(=N)N)NC(=O)[C@H](CCSC)NC(=O)CNC(=O)[C@H](C)NC(=O)[C@H](CCCCN)NC(=O)[C@H](CCCCN)NC(=O)[C@@H]3CSSC[C@@H](C(=O)N[C@H](C(=O)N4CCC[C@H]4C(=O)N[C@@H](CCCCN)C(=O)O)[C@@H](C)O)NC(=O)[C@H](Cc4c[nH]cn4)NC(=O)[C@H](CSSC[C@H](NC(=O)[C@H](CCC(N)=O)NC(=O)[C@H](CCCNC(=N)N)NC(=O)[C@H](CO)NC1=O)C(=O)N[C@@H](CC(C)C)C(=O)N[C@@H](CCC(=O)O)C(=O)N[C@@H](CCCNC(=N)N)C(=O)N3)NC(=O)[C@H](CCCCN)NC(=O)CNC(=O)[C@H](CC(N)=O)NC(=O)[C@H](CCSC)NC2=O [P17R] (H-GVIINVKCKISRQCLERCKKAGMRFGKCMNGKCHCTPK-OH; disulfide 8-28, 14-33, 18-35)	0.0104 nM	< 0.00152 nM
CC[C@H](C)[C@@H]1NC(=O)[C@H](CCCCN)NC(=O)[C@@H](NC(=O)[C@H](CCCCN)NC(=O)[C@@H](NC(=O)[C@H](CC(N)=O)NC(=O)[C@@H](NC(=O)[C@@H](NC(=O)[C@@H](NC(=O)CN)C(C)C)[C@@H](C)CC)[C@@H](C)CC)C(C)C)CSSC[C@@H]2NC(=O)[C@H](CCCCN)NC(=O)CNC(=O)[C@H](Cc3ccccc3)NC(=O)[C@H](CCCNC(=N)N)NC(=O)[C@H](CCSC)NC(=O)CNC(=O)[C@H](C)NC(=O)[C@H](CCCCN)NC(=O)[C@H](CCCCN)NC(=O)[C@@H]3CSSC[C@@H](C(=O)N[C@@H](CCCNC(=N)N)C(=O)N4CCC[C@H]4C(=O)N[C@@H](CCCCN)C(=O)O)NC(=O)[C@H](Cc4c[nH]cn4)NC(=O)[C@H](CSSC[C@H](NC(=O)[C@H](CCC(N)=O)NC(=O)[C@H](CCCNC(=N)N)NC(=O)[C@H](CO)NC1=O)C(=O)N[C@@H](CC(C)C)C(=O)N[C@@H](CCC(=O)O)C(=O)N1CCC[C@H]1C(=O)N3)NC(=O)[C@H](CCCCN)NC(=O)CNC(=O)[C@H](CC(N)=O)NC(=O)[C@H](CCSC)NC2=O [T36R] (H-GVIINVKCKISRQCLEPCKKAGMRFGKCMNGKCHCRPK-OH; disulfide 8-28, 14-33, 18-35)	1.31 nM	0.0266 nM
CC[C@H](C)[C@@H]1NC(=O)[C@H](CCCCN)NC(=O)[C@@H](NC(=O)[C@H](CCCCN)NC(=O)[C@@H](NC(=O)[C@H](CC(N)=O)NC(=O)[C@@H](NC(=O)[C@@H](NC(=O)[C@@H](NC(=O)CN)C(C)C)[C@@H](C)CC)[C@@H](C)CC)C(C)C)CSSC[C@@H]2NC(=O)[C@H](CCCCN)NC(=O)CNC(=O)[C@H](Cc3ccccc3)NC(=O)[C@H](CCCNC(=N)N)NC(=O)[C@H](CCSC)NC(=O)CNC(=O)[C@H](C)NC(=O)[C@H](CCCCN)NC(=O)[C@H](CCCCN)NC(=O)[C@@H]3CSSC[C@@H](C(=O)N[C@H](C(=O)N4CCC[C@H]4C(=O)N[C@@H](CCCCN)C(=O)O)[C@@H](C)O)NC(=O)[C@H](Cc4c[nH]cn4)NC(=O)[C@H](CSSC[C@H](NC(=O)[C@H](CCC(N)=O)NC(=O)[C@H](CCCNC(=N)N)NC(=O)[C@H](CO)NC1=O)C(=O)N[C@@H](C)C(=O)N[C@@H](CCC(=O)O)C(=O)N1CCC[C@H]1C(=O)N3)NC(=O)[C@H](CCCCN)NC(=O)CNC(=O)[C@H](CC(N)=O)NC(=O)[C@H](CCSC)NC2=O [L15A] (H-GVIINVKCKISRQCAEPCKKAGMRFGKCMNGKCHCTPK-OH; disulfide 8-28, 14-33, 18-35)	0.0431 nM	0.015 nM
CC[C@H](C)[C@@H]1NC(=O)[C@H](CCCCN)NC(=O)[C@@H](NC(=O)[C@H](CCCCN)NC(=O)[C@@H](NC(=O)[C@H](CC(N)=O)NC(=O)[C@@H](NC(=O)[C@@H](NC(=O)[C@@H](NC(=O)CN)C(C)C)[C@@H](C)CC)[C@@H](C)CC)C(C)C)CSSC[C@@H]2NC(=O)[C@H](CCCCN)NC(=O)CNC(=O)[C@H](C)NC(=O)[C@H](CCCNC(=N)N)NC(=O)[C@H](CCSC)NC(=O)CNC(=O)[C@H](C)NC(=O)[C@H](CCCCN)NC(=O)[C@H](CCCCN)NC(=O)[C@@H]3CSSC[C@@H](C(=O)N[C@H](C(=O)N4CCC[C@H]4C(=O)N[C@@H](CCCCN)C(=O)O)[C@@H](C)O)NC(=O)[C@H](Cc4c[nH]cn4)NC(=O)[C@H](CSSC[C@H](NC(=O)[C@H](CCC(N)=O)NC(=O)[C@H](CCCNC(=N)N)NC(=O)[C@H](CO)NC1=O)C(=O)N[C@@H](CC(C)C)C(=O)N[C@@H](CCC(=O)O)C(=O)N1CCC[C@H]1C(=O)N3)NC(=O)[C@H](CCCCN)NC(=O)CNC(=O)[C@H](CC(N)=O)NC(=O)[C@H](CCSC)NC2=O [F25A] (H-GVIINVKCKISRQCLEPCKKAGMRAGKCMNGKCHCTPK-OH; disulfide 8-28, 14-33, 18-35)	1.49 nM	0.0473 nM
CC[C@H](C)[C@@H]1NC(=O)[C@H](Cc2cccc3ccccc23)NC(=O)[C@@H](NC(=O)[C@H](CCCCN)NC(=O)[C@@H](NC(=O)[C@H](CC(N)=O)NC(=O)[C@@H](NC(=O)[C@@H](NC(=O)[C@@H](NC(=O)CN)C(C)C)[C@@H](C)CC)[C@@H](C)CC)C(C)C)CSSC[C@@H]2NC(=O)[C@H](CCCCN)NC(=O)CNC(=O)[C@H](Cc3ccccc3)NC(=O)[C@H](CCCNC(=N)N)NC(=O)[C@H](CCSC)NC(=O)CNC(=O)[C@H](C)NC(=O)[C@H](CCCCN)NC(=O)[C@H](CCCCN)NC(=O)[C@@H]3CSSC[C@@H](C(=O)N[C@H](C(=O)N4CCC[C@H]4C(=O)N[C@@H](CCCCN)C(=O)O)[C@@H](C)O)NC(=O)[C@H](Cc4c[nH]cn4)NC(=O)[C@H](CSSC[C@H](NC(=O)[C@H](CCC(N)=O)NC(=O)[C@H](CCCNC(=N)N)NC(=O)[C@H](CO)NC1=O)C(=O)N[C@@H](CC(C)C)C(=O)N[C@@H](CCC(=O)O)C(=O)N1CCC[C@H]1C(=O)N3)NC(=O)[C@H](CCCCN)NC(=O)CNC(=O)[C@H](CC(N)=O)NC(=O)[C@H](CCSC)NC2=O [K9Nal] (H-GVIINVKC[1Nal]ISRQCLEPCKKAGMRFGKCMNGKCHCTPK-OH; disulfide 8-28, 14-33, 18-35)	0.0658 nM	0.00292 nM
CC[C@H](C)[C@@H]1NC(=O)[C@H](CCCCN)NC(=O)[C@@H](NC(=O)[C@H](CCCCN)NC(=O)[C@@H](NC(=O)[C@H](CC(N)=O)NC(=O)[C@@H](NC(=O)[C@@H](NC(=O)[C@@H](NC(=O)CN)C(C)C)[C@@H](C)CC)[C@@H](C)CC)C(C)C)CSSC[C@@H]2NC(=O)[C@H](CCCCN)NC(=O)CNC(=O)[C@H](Cc3ccccc3)NC(=O)[C@H](CCCNC(=N)N)NC(=O)[C@H](CCSC)NC(=O)CNC(=O)[C@H](C)NC(=O)[C@H](CCCCN)NC(=O)[C@H](CCCCN)NC(=O)[C@@H]3CSSC[C@@H](C(=O)N[C@H](C(=O)N4CCC[C@H]4C(=O)N[C@@H](CCCCN)C(=O)O)[C@@H](C)O)NC(=O)[C@H](Cc4c[nH]cn4)NC(=O)[C@H](CSSC[C@H](NC(=O)[C@H](CCC(N)=O)NC(=O)[C@H](CCCNC(=N)N)NC(=O)[C@H](CO)NC1=O)C(=O)N[C@@H](CC(C)C)C(=O)N[C@@H](CCC(=O)O)C(=O)N[C@@H](Cc1cccc4ccccc14)C(=O)N3)NC(=O)[C@H](CCCCN)NC(=O)CNC(=O)[C@H](CC(N)=O)NC(=O)[C@H](CCSC)NC2=O [P17Nal] (H-GVIINVKCKISRQCLE[1Nal]CKKAGMRFGKCMNGKCHCTPK-OH; disulfide 8-28, 14-33, 18-35)	0.0162 nM	< 0.00152 nM
